This note sets out measurements from patent US11708351B2 (Achillion Pharmaceuticals, Inc., priority 2017, dated 2023).

Sequence of Human Factor D (P00746 26-253): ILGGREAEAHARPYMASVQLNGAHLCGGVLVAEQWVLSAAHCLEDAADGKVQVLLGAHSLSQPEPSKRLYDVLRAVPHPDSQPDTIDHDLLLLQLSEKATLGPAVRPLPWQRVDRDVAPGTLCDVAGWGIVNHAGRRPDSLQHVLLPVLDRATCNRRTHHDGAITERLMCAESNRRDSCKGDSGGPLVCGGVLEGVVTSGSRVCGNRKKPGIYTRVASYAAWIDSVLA

In the first assay the target is Human Factor D (Homo sapiens (Human), UniProt P00746). The assay is described as follows: Human Factor D Assay. Type of assay: biochemical. Conditions: Factor D inhibition, assay of Example 10; read-out: IC50 (Stars). How it is done:
Human Factor D (purified from human serum, Complement Technology, Inc.) at 80 nM final concentration is incubated with test compound at various concentrations for 5 min at room temperature in 50 mM Tris, 1M NaCl, pH 7.5. A synthetic substrate Z-L-Lys-SBzl and DTNB (Ellman's reagent) are added to final concentrations of 100 μM each. Absorbance at 405 nm (A405) is recorded at 30 second intervals for 30 min using a microplate spectrophotometer. IC50 values are calculated by nonlinear regression of complement Factor D reaction rates as a function of test compound concentration.
In the case of `COCc1ncc(-c2ccc3c(c2)c(C(C)=O)nn3CC(=O)N2[C@H](C(=O)Nc3nc(Br)ccc3C)C[C@@]3(C)C[C@@H]23)cn1` [Compound 278, (1R,3S,5R)-2-(2-(3-acetyl-5-(2-(methoxymethyl)py-rimidin-5-yl)-1H-indazol-1-yl)acetyl)-N-(6-bromo-3-methylpyridin-2-yl)-5-methyl-2-azabicyclo[3.1.0]hexane-3-carboxamide], the IC50 – broadly, the concentration that inhibits the measured activity by half – was less than 1 µM.
In the case of `CC(=O)c1nn(CC(=O)N2[C@H](C(=O)Nc3nc(Br)c(F)cc3C)C[C@@]3(CC#N)C[C@@H]23)c2cnc(-c3cnc(C)nc3)cc12` [Compound 249, (1R,3S,5R)-2-(2-(3-acetyl-5-(2-methylpyrimidin-5-yl)-1H-pyrazolo[3,4-c]pyridin-1-yl)acetyl)-N-(6-bromo-5-fluoro-3-methylpyridin-2-yl)-5-(cyanomethyl)-2-azabicyclo[3.1.0]hexane-3-carboxamide], the IC50 is less than 1 µM.
Same read-out and setting: next, `CC(=O)c1nn(CC(=O)N(C(=O)[C@@H]2C[C@@]3(C)C[C@H]3N2)c2cccc(Br)n2)c2cnc(-c3cnc(C)nc3)cc12` [Compound 334, (1R,3S,5R)-2-(2-(3-acetyl-5-(2-methylpyrimidin-5-yl)-1H-pyrazolo[3,4-c]pyridin-1-yl)acetyl)-N-(6-bromopyridin-2-yl)-5-methyl-2-azabicyclo[3.1.0]hexane-3-carboxamide]: less than 1 µM; `CC(=O)c1nn(CC(=O)N2[C@H](C(=O)Nc3nc(Br)c(F)cc3C)C[C@@]3(CN(CCO)CCO)C[C@@H]23)c2cnc(-c3cnc(C)nc3)cc12` [Compound 248, (1R,3S,5R)-2-(2-(3-acetyl-5-(2-methylpyrimidin-5-yl)-1H-pyrazolo[3,4-c]pyridin-1-yl)acetyl)-5-((bis(2-hydroxy-ethyl)amino)methyl)-N-(6-bromo-5-fluoro-3-methylpyridin-2-yl)-2-azabicyclo[3.1.0]hexane-3-carboxamide]: less than 1 µM; `CC(=O)c1nn(CC(=O)N2[C@H](C(=O)Nc3nc(Br)ccc3COCCF)C[C@@]3(C)C[C@@H]23)c2ccc(-c3cnc(C)nc3)cc12` [Compound 301, (1R,3S,5R)-2-(2-(3-acetyl-5-(2-methylpyrimidin-5-yl)-1H-indazol-1-yl)acetyl)-N-(6-bromo-3-((2-fluoro-ethoxy)methyl)pyridin-2-yl)-5-methyl-2-azabicyclo[3.1.0]hexane-3-carboxamide]: less than 1 µM.
Same read-out and setting: then `CC(=O)c1nn(CC(=O)N2[C@H](C(=O)Nc3nc(Br)ccc3C)C[C@@]3(C)C[C@@H]23)c2cnc(-c3cnc(C)cn3)cc12` [Compound 303], with less than 1 µM.

The assay is the same for the next values; noted with them: Table 6; Factor D 80 nM, substrate Z-L-Lys-SBzl; read-out: IC50.
For the compound `CC(=O)c1nn(CC(=O)N2[C@H](C(=O)O)C[C@@]3(C)C[C@@H]23)c2c(C)cc(-c3cnc(C)nc3)cc12` [Compound 126, (1R,3S,5R)-2-(2-(3-acetyl-7-methyl-5-(2-methylpyrimidin-5-yl)-1H-indazol-1-yl)acetyl)-5-methyl-2-azabicyclo[3.1.0] hexane-3-carboxylic acid], the concentration for half-maximal inhibition (IC50) is more than 10 µM.
Still for that read-out and setting: then `CC(=O)c1c2cc(-c3cnc(C)nc3)cc(C(F)(F)F)c2nn1CC(=O)N1[C@H](C(=O)Nc2nc(Br)ccc2C)C[C@@]2(C)C[C@@H]12` [Compound 217, (1R,3S,5R)-2-(2-(3-acetyl-5-(2-methylpyrimidin-5-yl)-7-(trifluoromethyl)-2H-indazol-2-yl)acetyl)-N-(6-bromo-3-methylpyridin-2-yl)-5-methyl-2-azabicyclo[3.1.0] hexane-3-carboxamide], with more than 10 µM; and `CC(=O)c1nn(CC(=O)N2C[C@H]3C[C@H]3[C@H]2C(=O)N2C[C@H]3C[C@H]3[C@H]2C(=O)Nc2nc(Br)ccc2C)c2c(C)cc(-c3cnc(C)nc3)cc12` [Compound 92, (1R,2S,5S)-3-((1R,2S,5S)-3-(2-(3-acetyl-7-methyl-5-(2-methylpyrimidin-5-yl)-1H-indazol-1-yl)acetyl)-3-azabicyclo[3.1.0]hexane-2-carbonyl)-N-(6-bromo-3-methylpyridin-2-yl)-3-azabicyclo[3.1.0] hexane-2-carboxamide], with 1 to 10 µM.
Same read-out and setting: then `CC(=O)c1nn(CC(=O)N2[C@H](C(=O)Nc3nc(Br)ccc3C)C[C@@]3(C)C[C@@H]23)c2c(CN(C)C)cc(-c3cnc(C)nc3)cc12` [Compound 167, (1R,3S,5R)-2-(2-(3-Acetyl-7-((dimethylamino)methyl)-5-(2-methylpyrimidin-5-yl)-1H-indazol-1-yl)acetyl)-N-(6-bromo-3-methylpyridin-2-yl)-5-methyl-2-azabicyclo[3.1.0]hexane-3-carboxamide], with less than 1 µM; and “(3S)-5-(3-Azabicyclo[3.1.1]heptan-3-ylmethyl)-2-(2-(3-acetyl-5-(2-methylpyrimidin-5-yl)-1H-indazol-1-yl)acetyl)-N-(6-bromo-3-methylpyridin-2-yl)-2-azabicyclo[3.1.0]hexane-3-carboxamide [Compound 13]”, with less than 1 µM.

Still in this assay, the particulars now being: Table 7; Factor D inhibition, assay of Example 10; read-out: IC50 (Stars).
On to `CC(=O)c1nn(CC(=O)N2[C@H](C(=O)Nc3cc(-c4ccccc4O)cc(Br)n3)C[C@@]3(C)C[C@@H]23)c2ccc(-c3cnc(C)nc3)cc12` [Compound 556, (1R,3S,5R)-2-(2-(3-acetyl-5-(2-methylpyrimidin-5-yl)-1H-indazol-1-yl)acetyl)-N-(6-bromo-4-(2-hydroxyphenyl)pyridin-2-yl)-5-methyl-2-azabicyclo[3.1.0]hexane-3-carboxamide], for which the IC50 is less than 1 µM.

The same assay, now with this note: Table 8; Factor D 80 nM, substrate Z-L-Lys-SBzl; read-out: IC50.
As for `COC(=O)CCCCCCCCCCCCCCCCC(=O)N[C@@H](CCC(=O)NCCOCCOCC(=O)NCCOCCOCC(=O)NCc1ncc(-c2cc(C)c3c(c2)c(C(C)=O)nn3CC(=O)N2[C@H](C(=O)Nc3nc(Br)ccc3C)C[C@@]3(C)C[C@@H]23)cn1)C(=O)OC` [Compound 403, (S)-methyl 1-(5-(3-acetyl-1-(2-((1R,3S,5R)-3-((6-bromo-3-methylpyridin-2-yl)carbamoyl)-5-methyl-2-azabicyclo[3.1.0]hexan-2-yl)-2-oxoethyl)-7-methyl-1H-indazol-5-yl)pyrimidin-2-yl)-24-(methoxycarbonyl)-3,12,21,26-tetraoxo-5,8,14,17-tetraoxa-2,11,20,25-tetraazatritetracontan-43-oate], the concentration for half-maximal inhibition (IC50) was less than 1 µM.
`CC(=O)c1nn(CC(=O)N2[C@H](C(=O)Nc3nc(Br)ccc3C)C[C@@]3(CNC(=O)COCCOCCNC(=O)COCCOCCNC(=O)CC[C@H](NC(=O)CCCCCCCCCCCCCCCCC(=O)O)C(=O)O)C[C@@H]23)c2ccc(-c3cnc(C)nc3)cc12` [Compound 379, (S)-1-((1R,3S,5R)-2-(2-(3-acetyl-5-(2-methylpyrimidin-5-yl)-1H-indazol-1-yl)acetyl)-3-((6-bromo-3-methylpyridin-2-yl)carbamoyl)-2-azabicyclo[3.1.0]hexan-5-yl)-24-carboxy-3,12,21,26-tetraoxo-5,8,14,17-tetraoxa-2,11,20,25-tetraazatritetracontan-43-oic acid]: the concentration for half-maximal inhibition (IC50) is less than 1 µM.
